{"source": "patent US20250129385A1", "about": "“GENE-EDITING METHODS FOR EMBRYONIC STEM CELLS” (ABS Global, Inc., priority 2022, published 2025)", "type_in_all_cases": "cell-based", "key": {"ROSA safe harbor locus": {"test_system": "ROSA safe harbor locus", "assay": "CRISPR-Cas9 RNP gene editing of bovine ESC, indels by Sanger sequencing/TIDE, ROSA locus", "conditions": "gbESC_H2682 cells; RNP 20 pmol SpCas9 + 60 pmol sgRNA, program CM138; DNA after four days; TIDE", "description": "(§1) Test edits were performed in the ROSA and CD18 loci. CRISPR guides targeting the CD18 (ITGB2) gene at chr1:144,776,517, or the ROSA safe harbor locus region chr22:17,210,883-17,210,982, (genome assembly ARS-UCD1.2/bosTau9) were designed and synthesized as sgRNA molecules (IDT, Coralville IA) as shown in Table 2.\n(§2) Ribonucleoprotein complexes formed from 20 pmol SpCas9 (IDT, Coralville IA) and 60 pmol sgRNA were electroporated into gbESC_H2682 cells using P3 nucleofection solution and the Amaxa 4D program CM138. After four days DNA from the cells was harvested using QUICKEXTRACT™ reagent (Lucigen, Middleton WI), and PCR was performed using the primers in Table 3."}, "CD18 (ITGB2) gene": {"test_system": "CD18 (ITGB2) gene", "assay": "CRISPR-Cas9 RNP gene editing of bovine ESC, indels by Sanger sequencing/TIDE, CD18 locus", "conditions": "gbESC_H2682 cells; RNP 20 pmol SpCas9 + 60 pmol sgRNA, program CM138; DNA after four days; TIDE", "description": "as §1, §2"}, "[1]": {"test_system": "Porcine stem cell line C2", "assay": "Single passage cell growth in media #2 with additives (CELLTITER-GLO 2.0)", "conditions": "simple defined media #2 plus additive, day five; for Cell Growth (% of simple media): line C2 passaged 1:80, laminin 521, changed daily", "description": "A revised simple defined media #2 (Table 6, with lower ascorbic acid and FGF2) was used to determine any immediate benefit of certain additives over the timeframe of one passage.\nPorcine stem cell line C2 (see Example 2) growing in the standard TI media conditions was passaged at a 1:80 ratio into a laminin 521 coated 24 well plate containing simple defined media #2 alone or with the addition of 1% bovine serum albumin, 1% Albumax, 1 mg/mL polyvinyl acetate, 1:500 chemically defined lipids (Gibco), 1:500 lipid mixture solution (Peprotech), 1:1000 Trace Elements B or C (Corning), sodium bicarbonate, and double the amount of ITS (insulin/transferrin/selenium). Cells were incubated at 38.5° C./5% 02 and media and additives were changed daily. On day five cell growth was measured using the CELLTITER-GLO® 2.0 kit (Promega, Madison WI)."}, "seventh exon of CD163": {"test_system": "seventh exon of CD163", "assay": "CRISPR-CAS9 editing of porcine ESC, single-cell clones screened by PCR genotyping", "conditions": "two guides together, C9 line; RNP 20 pmol SpCas9 + 60 pmol sgRNA, pulse DS137; colonies screened at day 21", "excerpt": "As proof of concept, the present inventors sought to create the CD163 edit disclosed in U.S. Pat. No. 11,535,850. Two guides, ctggcttact cctatcatga agg (SEQ ID NO: 103) and tcccatgcca tgaagagggt agg (SEQ ID NO: 104) were used to excise the seventh exon of CD163. These guides were electroporated into the C9 line by mixing cells in P3 nucleofection solution with ribonucleoprotein (20 pmol SpCas9 complexed with 60 pmol of the guide sgRNA) and using the pulse condition DS137 in a 4D-Nucleofector system (Lonza, Walkersville MD). Between day 7 and 12 post-electroporation, single cells were deposited one per well into a 96 well plate (coated with laminin 521 and containing TI media with Y27632) using a Hana Single Cell Dispenser instrument (Namocell, San Jose CA). Cells were allowed to grow until day 21, and then colonies were screened by PCR genotyping (see 11,535,850)."}}}
{"compound": "748: sgRNA, guide sequence TGTCGAGTCTCGATTATGGG, targeting bovine ROSA safe harbor locus (listed as DNA, chemistry not given here; listed as Bos taurus) [compound 748]", "values": [{"measurement": "Efficiency (%) (editing frequency)", "setting": "ROSA safe harbor locus", "value": 74.3, "unit": "%"}]}
{"compound": "749: sgRNA, guide sequence ATAATCGAGACTCGACATGG, targeting bovine ROSA safe harbor locus (listed as DNA, chemistry not given here; listed as Bos taurus) [compound 749]", "values": [{"measurement": "Efficiency (%) (editing frequency)", "setting": "ROSA safe harbor locus", "value": 66.5, "unit": "%"}]}
{"compound": "750: sgRNA, guide sequence AGGCGATGACGAGATCGCGG, targeting bovine ROSA safe harbor locus (listed as DNA, chemistry not given here; listed as Bos taurus) [compound 750]", "values": [{"measurement": "Efficiency (%) (editing frequency)", "setting": "ROSA safe harbor locus", "value": 58.2, "unit": "%"}]}
{"compound": "754: sgRNA, guide sequence CCCCGTGGGACTCACCGGAC, targeting bovine CD18 (ITGB2) gene (listed as DNA, chemistry not given here; listed as Bos taurus) [compound 754]", "values": [{"measurement": "Efficiency (%) (editing frequency)", "setting": "CD18 (ITGB2) gene", "value": 34.9, "unit": "%"}]}
{"compound": "O=C([O-])O.[Na+]", "note": "[Sodium bicarbonate]", "values": [{"measurement": "Cell Growth (% of simple media)", "setting": "[1]", "value": 75, "unit": "%"}]}
{"compound": "+ 1% BSA (Gibco A10008-01): 1% bovine serum albumin added to simple defined media #2", "values": [{"measurement": "effect on cell growth in words", "setting": "[1]; line C2", "value": "beneficial to cell growth"}, {"measurement": "Cell Growth (% of simple media)", "setting": "[1]", "value": 187, "unit": "%"}]}
{"compound": "SEQ ID NO: 103: guide ctggcttact cctatcatga agg used to excise the seventh exon of CD163 (guide CTGGCTTACTCCTATCATGAAGG; listed as DNA, chemistry not given here; listed as Sus scrofa)", "values": [{"measurement": "clones homozygous for the CD163 edit", "setting": "seventh exon of CD163", "value": "Two clones that were homozygous for the edit were found"}]}
{"compound": "SEQ ID NO: 104: guide tcccatgcca tgaagagggt agg used to excise the seventh exon of CD163 (guide TCCCATGCCATGAAGAGGGTAGG; listed as DNA, chemistry not given here; listed as Sus scrofa)", "values": [{"measurement": "clones homozygous for the CD163 edit", "setting": "seventh exon of CD163", "value": "Two clones that were homozygous for the edit were found"}]}
